Patent US10624917B2, “Compositions and methods useful for treating or preventing liver diseases or disorders, and promoting weight loss” (YALE UNIVERSITY, priority 2014, dated 2020)

Columns and labels:
[1] = tested on: wild type C57BL/6 mice treated with LPS; assay: LPS/D-galactosamine liver injury with adenosine agonist; type: in vivo, mouse
Procedure: FIGS. 14A-14F illustrate increase in serum ALT and changes in liver gene expression in mice treated with LPS in the presence or absence of adenosine agonist. Wild type C57BL/6 mice were injected intraperitoneally with LPS (1 μg/mouse). 16 hours later mice received NECA (2.5 mg kg^−1 body weight) and D-galactosamine (500 mg kg^−1) by IP for 2 hours following liver tissue and serum collection. Serum ALT was determined (FIG. 14A), and the gene expression of Il1β (FIG. 14B), Il6 (FIG. 14C), Hif1α (FIG. 14D), Nlrp3 (FIG. 14E), and tnfα (FIG. 14F) was quantified by real-time PCR using each specific gene primer set as listed. Data are expressed as the mean±SD from 6 mice in each treatment group. *p<0.05 determined by Student's t-test.
The results recited herein show a requirement for adenosine signaling via the A2A receptor for maximal production of IL-1β by macrophages in vitro. With tissue inflammation and injury extracellular adenosine levels are known to increase by a variety of means from the basal levels below 1 μM to levels up to […]. It was tested whether A2A receptor driven inflammasome activity was relevant in vivo; two models of liver injury was used: one acute LPS driven model where liver injury was assessed in 6 hours after LPS, and a second model of sterile injury by a toxic metabolic insult to the liver by thioacetamide (TAA) in which injury was examined at days 1, 2 and 7. A2AR-cKO mice that specifically delete Adora2a gene in macrophages were used. Liver immune populations were intact in these mice (FIG. 13). […] To test the effect of increasing adenosine signaling in vivo, wild-type mice were treated with LPS in the presence or absence of the adenosine agonist NECA.

[2] = tested on: IL-1β production in murine peritoneal macrophages (PECs); assay: IL-1β secretion (ELISA) by primed, ATP-pulsed peritoneal macrophages (PECs); type: cell-based, mouse; conditions: LPS and monosodium urate (MSU) crystals
[3] = tested on: HRE promoter luciferase construct in THP-1 cells; assay: HRE-promoter luciferase reporter assay in THP-1 cells; type: cell-based, human; conditions: LPS/PMA primed 16 hours, treatment over 8 hours
Description: FIGS. 4A-4H illustrate the finding that adenosine mediates increase in pro-IL-1β via a HIF-1α-dependent pathway. FIG. 4A: Consensus NFκB and HRE binding sites in the IL-1β promoter. FIG. 4B: LPS primed PECs obtained from A2AR-cKO and controls were stimulated with or without NECA or CGS21680. FIG. 4C: LPS primed PECs obtained from HIF-1α-cKO and controls were stimulated with or without NECA at time points as indicated. Cells were harvested and RNA isolated after each treatment and gene expression of Il1b and Hif1α quantified by real-time PCR. FIG. 4D: THP-1 cells were transfected with HRE-promoter luciferase construct and β-galactosidase plasmid in the presence or absence of CREB dominant negative plasmid (CREBΔ), and then primed with LPS/PMA followed by NECA. […] Luciferase activities were measured and normalized to β-galactosidase activity and normalized with controls. […] Luciferase activities were measured and normalized to Rluc activity and the normalized value with controls as indicated. […] IL-1β was measured in cell supernatant by ELISA. Data are expressed as the mean±SD from three independent experiments. […] HIF-1α, pro-caspase-1, Caspase-1 and pro-IL-1β was measured in cell supernatant by western blot Immunoblots shown are representative results from at least three independent experiments. […]

[4] = tested on: wild type and Casp-1−/− mice injected with TAA; assay: TAA induced liver fibrosis with co-injection of adenosine agonist; type: in vivo, mouse; conditions: wildtype mice
Procedure: FIGS. 16A-16B illustrate increased liver fibrosis in wild-type control but not caspase-1-deficient mice in response to adenosine agonist. FIG. 16A: Wild type and Casp-1−/− mice were injected intraperitoneally with TAA with co-injection of CGS21680 (2.5 mg kg^−1 body weight) or vehicle. The liver tissues from each group were collected […] after first injection, and tissue collagen visualized by Sirius red staining, and the representative images are shown. Scale bar corresponds to 500 μm. FIG. 16B: Total liver RNA was extracted and Timp1 mRNA levels quantified. Data are expressed as the mean±SD from three independent experiments. * p<0.05 determined by Student's t-test.
To further test the effect of increased adenosine signaling on fibrosis wild-type and caspase-1 deficient mice were injected with TAA with and without co-injection of the adenosine agonist CGS21680. After one week, liver tissues were stained for collagen with Sirus Red. CGS21680 increased TAA induced liver fibrosis and Timp1 expression in wildtype but not caspase-1 deficient mice (FIGS. 16A-16B).

Row | SMILES | serum ALT [1] | whole liver transcript of Hif1a [1] | whole liver transcript of Il1b [1] | whole liver transcript of Il6 [1] | whole liver transcript of Nlrp3 [1] | whole liver transcript of tnfa [1] | IL-1β production [2] | HRE reporter luciferase activity [3] | TAA induced liver fibrosis [4] | Timp1 expression [4]
1 | CCNC(=O)[C@H]1O[C@@H](n2cnc3c(N)ncnc32)[C@H](O)[C@@H]1O [NECA, 5′-(N-ethylcarboxamido) adenosine] | significant elevation | significant elevation | significant elevation | significant elevation | significant elevation | reduction | increased | resulted in HRE reporter luciferase activity | – | –
2 | CCNC(=O)[C@H]1O[C@@H](n2cnc3c(N)nc(NCCc4ccc(CCC(=O)O)cc4)nc32)[C@H](O)[C@@H]1O [CGS21680] | – | – | – | – | – | – | – | – | increased | increased
